Test results reported in ChEMBL document CHEMBL5303765, “Data for DCP probe BAY-7081” (2023).

Tests used:
[1] = target: T1, Serine/threonine-protein kinase VRK1 (Homo sapiens) (UniProt Q99986); experiment: VRK1 SGC Tm panel (DSF); conditions: for ΔTm: Compound concentration 10.0 uM
T1 sequence (whole entry): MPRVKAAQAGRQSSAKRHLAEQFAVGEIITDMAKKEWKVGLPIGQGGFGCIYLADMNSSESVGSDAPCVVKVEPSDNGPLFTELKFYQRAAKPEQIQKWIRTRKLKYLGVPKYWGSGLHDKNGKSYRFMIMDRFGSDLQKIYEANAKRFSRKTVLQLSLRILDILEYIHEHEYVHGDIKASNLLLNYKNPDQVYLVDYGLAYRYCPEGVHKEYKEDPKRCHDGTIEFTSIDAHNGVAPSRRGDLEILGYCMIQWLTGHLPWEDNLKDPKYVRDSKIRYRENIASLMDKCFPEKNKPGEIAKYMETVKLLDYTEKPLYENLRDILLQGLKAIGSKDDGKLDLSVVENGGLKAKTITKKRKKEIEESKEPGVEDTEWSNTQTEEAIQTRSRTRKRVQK

[2] = target: T2, Tyrosine-protein kinase Mer (Homo sapiens) (UniProt Q12866); experiment: MERTK SGC Tm panel (DSF); conditions: for ΔTm: Compound concentration 10.0 uM
T2 sequence (whole entry): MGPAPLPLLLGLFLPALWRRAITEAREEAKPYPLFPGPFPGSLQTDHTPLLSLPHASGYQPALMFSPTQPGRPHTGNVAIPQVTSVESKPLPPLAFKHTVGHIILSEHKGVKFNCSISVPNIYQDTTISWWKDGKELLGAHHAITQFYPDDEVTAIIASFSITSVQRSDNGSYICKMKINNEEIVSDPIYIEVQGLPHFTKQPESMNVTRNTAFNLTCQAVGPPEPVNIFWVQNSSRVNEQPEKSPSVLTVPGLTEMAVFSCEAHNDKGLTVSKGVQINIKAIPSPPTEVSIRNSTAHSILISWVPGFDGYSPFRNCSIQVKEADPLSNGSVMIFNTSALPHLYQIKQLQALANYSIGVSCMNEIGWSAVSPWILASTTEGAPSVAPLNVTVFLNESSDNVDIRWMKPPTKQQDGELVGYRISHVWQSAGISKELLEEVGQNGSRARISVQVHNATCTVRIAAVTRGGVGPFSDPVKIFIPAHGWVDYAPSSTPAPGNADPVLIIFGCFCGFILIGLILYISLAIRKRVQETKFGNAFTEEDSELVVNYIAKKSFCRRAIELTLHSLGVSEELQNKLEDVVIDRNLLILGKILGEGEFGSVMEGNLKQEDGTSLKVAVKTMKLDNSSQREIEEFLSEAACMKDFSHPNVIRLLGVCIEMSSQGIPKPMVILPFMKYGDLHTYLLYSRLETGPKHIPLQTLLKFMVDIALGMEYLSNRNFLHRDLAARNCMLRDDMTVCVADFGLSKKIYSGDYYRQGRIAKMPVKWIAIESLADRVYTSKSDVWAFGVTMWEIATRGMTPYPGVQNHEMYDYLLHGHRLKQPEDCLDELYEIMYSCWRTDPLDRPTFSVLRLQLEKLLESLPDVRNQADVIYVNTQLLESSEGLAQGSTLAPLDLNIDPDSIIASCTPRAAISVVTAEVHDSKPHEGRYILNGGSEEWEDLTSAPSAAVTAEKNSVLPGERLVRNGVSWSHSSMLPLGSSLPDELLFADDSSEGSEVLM

[3] = target: T3, Alpha-2B adrenergic receptor (Homo sapiens) (UniProt P18089); conditions: Compound concentration 10.0 uM
T3 sequence (whole entry): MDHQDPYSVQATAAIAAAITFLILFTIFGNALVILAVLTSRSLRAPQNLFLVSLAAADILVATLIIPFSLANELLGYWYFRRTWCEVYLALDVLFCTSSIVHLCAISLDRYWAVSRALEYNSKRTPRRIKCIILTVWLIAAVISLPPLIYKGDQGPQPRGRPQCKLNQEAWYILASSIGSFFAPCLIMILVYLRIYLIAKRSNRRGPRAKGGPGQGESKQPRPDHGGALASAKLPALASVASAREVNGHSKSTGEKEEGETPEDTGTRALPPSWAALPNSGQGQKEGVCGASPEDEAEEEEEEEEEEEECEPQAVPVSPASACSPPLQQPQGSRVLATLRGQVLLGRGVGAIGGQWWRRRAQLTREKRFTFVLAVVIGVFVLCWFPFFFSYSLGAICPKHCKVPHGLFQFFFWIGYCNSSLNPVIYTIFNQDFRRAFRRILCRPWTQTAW

[4] = target: Beta-2 adrenergic receptor (Homo sapiens) (UniProt P07550); conditions: Compound concentration 10.0 uM
[5] = target: Ribosomal protein S6 kinase alpha-1 (Homo sapiens) (UniProt Q15418); experiment: RPS6KA1 SGC Tm panel (DSF); conditions: for ΔTm: Compound concentration 10.0 uM
[6] = target: Sigma intracellular receptor 2 (Homo sapiens) (UniProt Q5BJF2); conditions: Compound concentration 10.0 uM
[7] = target: Calcium/calmodulin-dependent protein kinase type II subunit delta (Homo sapiens) (UniProt Q13557); experiment: CAMK2D SGC Tm panel (DSF); conditions: for ΔTm: Compound concentration 10.0 uM
[8] = target: Calcium/calmodulin-dependent protein kinase type II subunit beta (Homo sapiens) (UniProt Q13554); experiment: CAMK2B SGC Tm panel (DSF); conditions: for ΔTm: Compound concentration 10.0 uM
[9] = target: T4, Ferrochelatase, mitochondrial (Homo sapiens) (UniProt P22830); experiment: FECHHS SGC Tm panel (DSF); conditions: for ΔTm: Compound concentration 10.0 uM
T4 sequence (whole entry): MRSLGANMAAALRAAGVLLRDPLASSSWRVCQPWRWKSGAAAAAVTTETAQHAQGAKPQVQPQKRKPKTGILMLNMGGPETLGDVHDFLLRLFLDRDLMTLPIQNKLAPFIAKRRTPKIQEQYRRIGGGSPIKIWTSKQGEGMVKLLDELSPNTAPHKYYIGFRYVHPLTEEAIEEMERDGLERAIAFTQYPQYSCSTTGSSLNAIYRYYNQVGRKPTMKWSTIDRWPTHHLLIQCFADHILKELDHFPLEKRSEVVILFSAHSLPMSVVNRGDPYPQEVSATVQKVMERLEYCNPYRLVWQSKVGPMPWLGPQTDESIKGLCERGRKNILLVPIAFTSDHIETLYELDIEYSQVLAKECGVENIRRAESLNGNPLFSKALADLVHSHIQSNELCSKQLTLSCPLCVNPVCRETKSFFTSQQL

Beta-2 adrenergic receptor (Homo sapiens), sequence (P07550 whole entry, looked up): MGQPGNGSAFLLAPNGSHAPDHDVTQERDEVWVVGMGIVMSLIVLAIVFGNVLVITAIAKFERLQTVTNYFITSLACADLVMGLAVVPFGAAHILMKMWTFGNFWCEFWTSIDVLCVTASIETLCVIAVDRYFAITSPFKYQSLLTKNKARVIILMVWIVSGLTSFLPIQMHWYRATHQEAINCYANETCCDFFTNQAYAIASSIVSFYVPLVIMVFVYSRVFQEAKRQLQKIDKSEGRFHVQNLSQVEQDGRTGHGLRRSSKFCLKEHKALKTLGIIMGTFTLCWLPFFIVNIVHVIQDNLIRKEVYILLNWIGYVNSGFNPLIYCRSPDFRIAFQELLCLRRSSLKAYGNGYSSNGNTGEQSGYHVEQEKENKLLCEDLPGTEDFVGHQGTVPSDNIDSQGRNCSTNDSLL
Sigma intracellular receptor 2 (Homo sapiens), sequence (Q5BJF2 whole entry): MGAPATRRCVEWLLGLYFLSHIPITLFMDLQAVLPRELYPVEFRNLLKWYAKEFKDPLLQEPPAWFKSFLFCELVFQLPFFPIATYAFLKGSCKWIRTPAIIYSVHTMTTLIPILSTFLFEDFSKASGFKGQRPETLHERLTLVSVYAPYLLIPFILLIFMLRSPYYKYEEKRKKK
Calcium/calmodulin-dependent protein kinase type II subunit delta (Homo sapiens), sequence (Q13557 whole entry): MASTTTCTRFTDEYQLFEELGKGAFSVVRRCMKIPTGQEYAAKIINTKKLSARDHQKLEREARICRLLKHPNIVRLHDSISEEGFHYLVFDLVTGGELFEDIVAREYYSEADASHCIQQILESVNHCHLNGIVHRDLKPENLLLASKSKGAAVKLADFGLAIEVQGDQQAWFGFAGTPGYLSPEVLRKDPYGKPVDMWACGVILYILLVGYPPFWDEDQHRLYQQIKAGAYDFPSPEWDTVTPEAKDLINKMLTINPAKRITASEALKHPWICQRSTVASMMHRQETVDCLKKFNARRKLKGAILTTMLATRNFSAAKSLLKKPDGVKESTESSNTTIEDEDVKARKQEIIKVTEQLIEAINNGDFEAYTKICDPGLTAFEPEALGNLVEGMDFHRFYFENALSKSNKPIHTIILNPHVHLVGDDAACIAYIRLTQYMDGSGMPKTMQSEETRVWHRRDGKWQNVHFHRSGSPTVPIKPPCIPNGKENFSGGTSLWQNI
Ribosomal protein S6 kinase alpha-1 (Homo sapiens), sequence (Q15418 whole entry): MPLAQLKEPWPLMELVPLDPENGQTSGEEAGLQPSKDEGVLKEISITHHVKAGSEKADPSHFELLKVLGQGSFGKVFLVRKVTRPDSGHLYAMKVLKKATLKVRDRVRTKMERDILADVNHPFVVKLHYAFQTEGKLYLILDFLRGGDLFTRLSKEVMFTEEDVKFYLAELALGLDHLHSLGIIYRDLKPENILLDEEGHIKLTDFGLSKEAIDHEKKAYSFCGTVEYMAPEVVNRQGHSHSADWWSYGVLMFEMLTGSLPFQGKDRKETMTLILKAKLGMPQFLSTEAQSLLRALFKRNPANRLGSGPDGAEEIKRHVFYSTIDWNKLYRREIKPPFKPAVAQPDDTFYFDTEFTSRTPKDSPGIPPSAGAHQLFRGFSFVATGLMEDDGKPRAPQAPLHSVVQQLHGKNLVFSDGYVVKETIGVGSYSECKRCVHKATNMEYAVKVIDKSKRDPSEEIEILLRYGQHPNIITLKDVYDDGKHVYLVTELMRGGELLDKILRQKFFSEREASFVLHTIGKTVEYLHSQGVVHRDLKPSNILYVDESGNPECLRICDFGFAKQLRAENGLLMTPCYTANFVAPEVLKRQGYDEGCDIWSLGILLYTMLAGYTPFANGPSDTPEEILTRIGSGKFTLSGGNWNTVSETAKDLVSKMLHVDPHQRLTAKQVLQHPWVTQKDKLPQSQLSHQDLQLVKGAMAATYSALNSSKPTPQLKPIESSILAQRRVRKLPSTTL
Calcium/calmodulin-dependent protein kinase type II subunit beta (Homo sapiens), sequence (Q13554 whole entry): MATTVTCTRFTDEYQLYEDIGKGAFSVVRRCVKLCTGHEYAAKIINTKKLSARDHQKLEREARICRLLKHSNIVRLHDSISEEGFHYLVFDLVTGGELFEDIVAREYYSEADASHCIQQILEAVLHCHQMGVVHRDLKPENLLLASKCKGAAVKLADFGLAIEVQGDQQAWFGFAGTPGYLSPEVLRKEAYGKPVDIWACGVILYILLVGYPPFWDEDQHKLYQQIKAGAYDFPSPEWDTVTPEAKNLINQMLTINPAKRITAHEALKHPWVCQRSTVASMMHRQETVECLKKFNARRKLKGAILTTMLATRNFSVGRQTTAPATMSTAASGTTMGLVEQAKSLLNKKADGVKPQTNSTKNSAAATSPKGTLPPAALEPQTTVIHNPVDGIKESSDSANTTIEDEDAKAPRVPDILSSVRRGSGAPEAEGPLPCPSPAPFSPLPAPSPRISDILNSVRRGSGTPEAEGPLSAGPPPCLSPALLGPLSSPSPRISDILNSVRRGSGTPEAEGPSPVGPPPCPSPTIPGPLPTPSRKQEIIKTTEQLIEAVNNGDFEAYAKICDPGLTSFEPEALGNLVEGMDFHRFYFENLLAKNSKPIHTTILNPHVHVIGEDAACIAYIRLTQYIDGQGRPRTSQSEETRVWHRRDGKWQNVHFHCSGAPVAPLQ

Compound | delta Tm Staurosporine positive control [1] | ΔTm [1] | delta Tm Staurosporine positive control [2] | ΔTm [2] | inhibition [3] | inhibition [4] | delta Tm Staurosporine positive control [5] | ΔTm [5] | inhibition [6] | delta Tm Staurosporine positive control [7] | ΔTm [7] | delta Tm Staurosporine positive control [8] | ΔTm [8] | delta Tm Staurosporine positive control [9] | ΔTm [9]
CCC[C@H]1CNCc2c1[nH]c(=O)c(C#N)c2N1CCC2(CC1)CC2 | 2.35 | -0.355 | 6.4 | -0.991 | 4.16% | -6.31% | 4.78 | -0.0815 | -5% | 18.2 | 0.118 | 13.7 | -0.51 | 2.89 | -1.08
CCC[C@@H]1CNCc2c1[nH]c(=O)c(C#N)c2N1CCC2(CC1)CC2 | 2.35 | -0.315 | 6.4 | -0.932 | 16.9% | -6.78% | 4.78 | -0.0442 | -4.19% | 18.2 | -0.155 | 13.7 | -0.647 | 2.89 | -1.34
